The target in test [1] is T1, hSOS1 (hSOS1-mediated nucleotide exchange of hK-RasG12C) (Homo sapiens, UniProt Q07889).
T1 construct: hSOS1 (amino acid 564-1049); made in house; host or cells: E. coli BL21 (DE3)
T1 sequence (Q07889 with tags, fused parts or gaps): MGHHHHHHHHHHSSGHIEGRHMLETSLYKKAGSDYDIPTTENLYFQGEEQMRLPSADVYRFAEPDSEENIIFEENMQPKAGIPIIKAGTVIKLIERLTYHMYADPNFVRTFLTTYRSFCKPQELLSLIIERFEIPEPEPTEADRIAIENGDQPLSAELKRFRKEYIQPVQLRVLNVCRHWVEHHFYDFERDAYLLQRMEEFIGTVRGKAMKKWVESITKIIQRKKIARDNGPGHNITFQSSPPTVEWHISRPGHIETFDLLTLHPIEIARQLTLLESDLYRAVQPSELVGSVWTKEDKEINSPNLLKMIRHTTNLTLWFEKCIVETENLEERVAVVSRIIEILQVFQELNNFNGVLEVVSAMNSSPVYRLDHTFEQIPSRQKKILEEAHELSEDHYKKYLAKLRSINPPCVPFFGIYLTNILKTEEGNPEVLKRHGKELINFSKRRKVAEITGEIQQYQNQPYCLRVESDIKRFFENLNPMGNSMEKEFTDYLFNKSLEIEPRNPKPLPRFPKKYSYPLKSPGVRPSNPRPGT
Description: Biochemical Assay 2: hK-RasG12C activation assay by hSOS1 at high GTP concentration (HTRF nucleotide exchange). The settings on record: high GTP (50 μM GTP). On the technique in general: TR-FRET usually uses a lanthanide donor and a delayed reading to cut background.

In test [2] the target is T2, hSOS1 (hSOS1-mediated loading of hK-RasG12C-GDP) (Homo sapiens, UniProt Q07889).
T2 construct: hSOS1 (amino acid 564-1049); made in house; host or cells: E. coli BL21 (DE3)
T2 sequence (Q07889 with tags, fused parts or gaps): T1 sequence (Q07889 with tags, fused parts or gaps)
The experiment in a line: Biochemical Assay 3: hK-RasG12C activation assay by hSOS1 (loading with fluorescent GTP analog, HTRF). The settings on record: no GTP.

Consider 27 molecules from patent US20220274979A1 (Bayer Pharma Aktiengesellschaft, priority 2018, published 2022).

A value given as a limit tells only on which side of the number the result lay.

A word on the IC50: it is the concentration that inhibits the measured activity by half.

As for `CNCc1ccccc1-c1ccc(C(C)Nc2nc(C)nc3cnc(Oc4ccc(N5CCCC5=O)cc4)cc23)s1` (stereo not drawn) [Example 38, 1-{4-[(2-methyl-4-{[1-(5-{2-[(methylamino)methyl]phenyl}thiophen-2-yl)ethyl]amino}pyrido[3,4-d]pyrimidin-6-yl)oxy]phenyl}pyrrolidin-2-one], the values for the IC50 in test [1] and in test [2] were 0.601 µM and 0.269 µM, respectively.
For `Cc1nc(N[C@H](C)c2cccc(Br)c2)c2cc(NCCN3CCOCC3)ncc2n1` [Example 39] the same measures were 1.36 µM and 1.64 µM.
For `Cc1nc(N[C@H](C)c2cccc(Br)c2)c2cc(Oc3cccc(O)c3)ncc2n1` [Example 40, 3-[(4-{[(1R)-1-(3-bromophenyl)ethyl]amino}-2-methylpyrido[3,4-d]pyrimidin-6-yl)oxy]phenol] the same measures were 8.66 µM and more than 20 µM.
As to `Cc1nc(N[C@H](C)c2cccc(Br)c2)c2cc(Oc3cccc(C4=NCCN4C)c3)ncc2n1` [Example 41, N-[(1R)-1-(3-bromophenyl)ethyl]-2-methyl-6-[3-(1-methyl-4,5-dihydro-1H-imidazol-2-yl)phenoxy]pyrido[3,4-d]pyrimidin-4-amine], the IC50 in test [1] came to 2.31 µM; in test [2], 3.88 µM.
For `Cc1nc(N[C@H](C)c2cccc(Br)c2)c2cc(N3CCN(Cc4cccnc4)CC3)ncc2n1` [Example 43, N-[(1R)-1-(3-bromophenyl)ethyl]-2-methyl-6-[4-(pyridin-3-ylmethyl)piperazin-1-yl]pyrido[3,4-d]pyrimidin-4-amine] the same measures were 0.38 µM and 0.446 µM.
Take `CC(=O)NCCNc1cc2c(N[C@H](C)c3cccc(Br)c3)nc(C)nc2cn1` [Example 44, N-{2-[(4-{[(1R)-1-(3-bromophenyl)ethyl]amino}-2-methylpyrido[3,4-d]pyrimidin-6-yl)amino]ethyl}acetamide]: the IC50 in test [1] is 1.06 µM; in test [2] it was 1.64 µM.
The corresponding values for `Cc1nc(N[C@H](C)c2cccc(Br)c2)c2cc(N3CCNC(=O)C3)ncc2n1` [Example 45] are 0.506 µM and 0.459 µM.
The corresponding values for `Cc1nc(N[C@H](C)c2cccc(Br)c2)c2cc(NC3CCOCC3)ncc2n1` [Example 46] are 4.22 µM and 12.8 µM.
The corresponding values for `Cc1nc(NC(C)c2ccc(-c3ccccc3CN(C)C)s2)c2cc(NCCN3CCOCC3)ncc2n1` (stereo not drawn) [Example 48] are 0.141 µM and 0.114 µM.
With `Cc1nc(N[C@H](C)c2cccc(Br)c2)c2cc(NCCn3cccn3)ncc2n1` [Example 49, N4-[(1R)-1-(3-bromophenl)pethyl]-2-methyl-N6-[2-(1H-pyrazol-1-yl)ethyl]pyrido[3,4-d]pyrimidine-4,6-diamine], the results for the IC50 in test [1] and in test [2] were 3.63 µM and 6.99 µM, respectively.
For `CC(=O)NCCNc1cc2c(NC(C)c3ccc(-c4ccccc4CN(C)C)s3)nc(C)nc2cn1` (stereo not drawn) [Example 51, N-{2-[(4-{[1-(5-{2-[(dimethylamino)methyl]phenyl}thiophen-2-yl)ethyl]amino}-2-methylpyrido[3,4-d]pyrimidin-6-yl)amino]ethyl}acetamide] the same measures were 0.0778 µM and 0.0895 µM.
For `Cc1nc(NC(C)c2ccc(-c3ccccc3CN(C)C)s2)c2cc(Oc3cccc(O)c3)ncc2n1` (stereo not drawn) [Example 52, 3-[(4-{[1-(5-{2-[(dimethylamino)methyl]phenyl}thiophen-2-yl)ethyl]amino}-2-methylpyrido[3,4-d]pyrimidin-6-yl)oxy]phenol] the same measures were 0.856 µM and 0.532 µM.
For `Cc1nc(NC(C)c2ccc(-c3ccccc3CN(C)C)s2)c2cc(NC3CCOCC3)ncc2n1` (stereo not drawn) [Example 53, N4-[1-(5-{2-[(dimethylamino)methyl]phenyl}-2-thienyl)ethyl]-2-methyl-N6-(tetrahydro-2H-pyran-4-yl)pyrido[3,4-d]pyrimidine-4,6-diamine] the same measures were 0.223 µM and 0.239 µM.
In the case of `Cc1nc(NC(C)c2ccc(-c3ccccc3CN(C)C)s2)c2cc(NCCn3cccn3)ncc2n1` (stereo not drawn) [Example 54, N4-[1-(5-{2-[(dimethylamino)methyl]phenyl}-2-thienyl)ethyl]-2-methyl-N6-[2-(1H-pyrazol-1-yl)ethyl]pyrido[3,4-d]pyrimidine-4,6-diamine], the IC50 in test [1] amounted to 0.161 µM; in test [2], 0.189 µM.
The corresponding values for `Cc1nc(NC(C)c2ccc(-c3ccccc3CN(C)C)s2)c2cc(NCCn3ccnc3)ncc2n1` (stereo not drawn) [Example 56, N4-[1-(5-{2-[(dimethylamino)methyl]phenyl}-2-thienyl)ethyl]-N6-[2-(1H-imidazol-1-yl)ethyl]-2-methylpyrido[3,4-d]pyrimidine-4,6-diamine] are 0.0939 µM and 0.0895 µM.
For `COc1cc2c(N[C@H](C)c3cccc(Br)c3)nc(C)nc2cn1` [Example 57, N-[(1R)-1-(3-bromophenyl)ethyl]-6-methoxy-2-methylpyrido[3,4-d]pyrimidin-4-amine] the same measures were 1.23 µM and 1.78 µM.
On to `Cc1nc(NC(C)c2ccc(-c3ccccc3CN(C)C)s2)c2cc(Oc3cccc(C4=NCCN4C)c3)ncc2n1` (stereo not drawn) [Example 58, N-[1-(5-{2-[(dimethylamino)methyl]phenyl}thiophen-2-yl)ethyl]-2-methyl-6-[3-(1-methyl-4,5-dihydro-1H-imidazol-2-yl)phenoxy]pyrido[3,4-d]pyrimidin-4-amine], for which the IC50 worked out at 0.141 µM in test [1] and 0.155 µM in test [2].
For `CSc1cc2c(NC(C)c3ccc(-c4ccccc4CN(C)C)s3)nc(C)nc2cn1` (stereo not drawn) [Example 59, N-[1-(5-{2-[(dimethylamino)methyl]phenyl}thiophen-2-yl)ethyl]-2-methyl-6-(methylsulfanyl)pyrido[3,4-d]pyrimidin-4-amine] the same measures were 0.0679 µM and 0.0677 µM.
As for `CC(=O)NCCOc1cc2c(N[C@H](C)c3cccc(Br)c3)nc(C)nc2cn1` [Example 62, N-{2-[(4-{[(1R)-1-(3-bromophenyl)ethyl]amino}-2-methylpyrido[3,4-d]pyrimidin-6-yl)oxy]ethyl}acetamide], the IC50 worked out at 0.443 µM in test [1] and 0.735 µM in test [2].
The corresponding values for `CCOc1cc2c(NC(C)c3ccc(-c4ccccc4CN(C)C)s3)nc(C)nc2cn1` (stereo not drawn) [Example 63, N-[1-(5-{2-[(dimethylamino)methyl]phenyl}thiophen-2-yl)ethyl]-6-ethoxy-2-methylpyrido[3,4-d]pyrimidin-4-amine] are 0.028 µM and 0.0611 µM.
For `COc1cc2c(NC(C)c3ccc(-c4ccccc4CN(C)C)s3)nc(C)nc2cn1` (stereo not drawn) [Example 64, N-[1-(5-{2-[(dimethylamino)methyl]phenyl}thiophen-2-yl)ethyl]-6-methoxy-2-methylpyrido[3,4-d]pyrimidin-4-amine] the same measures were 0.0626 µM and 0.0803 µM.
On to `Cc1nc(NC(C)c2ccc(-c3ccccc3CN(C)C)s2)c2cc(OC3CCS(=O)(=O)CC3)ncc2n1` (stereo not drawn) [Example 67, N-[1-(5-{2-[(dimethylamino)methyl]phenyl}thiophen-2-yl)ethyl]-6-[(1,1-dioxidotetrahydro-2H-thiopyran-4-yl)oxy]-2-methylpyrido[3,4-d]pyrimidin-4-amine], for which the IC50 in test [1] is 0.0266 µM; in test [2], 0.0633 µM.
For `Cc1nc(NC(C)c2ccc(-c3ccccc3CO)s2)c2cc(F)ncc2n1` (stereo not drawn) [Example 68, [2-(5-{1-[(6-fluoro-2-methylpyrido[3,4-d]pyrimidin-4-yl)amino]ethyl}thiophen-2-yl)phenyl]methanol] the same measures were more than 20 µM and more than 20 µM.
Regarding `Cc1nc(N[C@H](C)c2cccc(Br)c2)c2cc(OCCCN(C)C)ncc2n1` [Example 70, N-[(1R)-1-(3-bromophenyl)ethyl]-6-[3-(dimethylamino)propoxy]-2-methylpyrido[3,4-d]pyrimidin-4-amine], the results for the IC50 in test [1] and in test [2] were 0.951 µM and 1.34 µM, respectively.
For `Cc1nc(NC(C)c2ccc(-c3ccccc3CN(C)C)s2)c2cc(N3CCC3)ncc2n1` (stereo not drawn) [Example 71, 6-(azetidin-1-yl)-N-[1-(5-{2-[(dimethylamino)methyl]phenyl}thiophen-2-yl)ethyl]-2-methylpyrido[3,4-d]pyrimidin-4-amine] the same measures were 0.0555 µM and 0.0825 µM.
`Cc1nc(NC(C)c2ccc(-c3ccccc3CN(C)C)s2)c2cc(OCCCN(C)C)ncc2n1` (stereo not drawn) [Example 72, N-[1-(5-{2-[(dimethylamino)methyl]phenyl}thiophen-2-yl)ethyl]-6-[3-(dimethylamino)propoxy]-2-methylpyrido[3,4-d]pyrimidin-4-amine]: the IC50 in test [1] stood at 0.0421 µM; in test [2], 0.049 µM.
For `Cc1nc(NC(C)c2ccc(-c3ccccc3CN(C)C)s2)c2cc(OCC3CC3)ncc2n1` (stereo not drawn) [Example 73, 6-(cyclopropylmethoxy)-N-[1-(5-{2-[(dimethylamino)methyl]phenyl}thiophen-2-yl)ethyl]-2-methylpyrido[3,4-d]pyrimidin-4-amine] the same measures were 0.129 µM and 0.138 µM.
